Reference: article PMC8071358, “Targeting of the Essential acpP, ftsZ, and rne Genes in Carbapenem-Resistant Acinetobacter baumannii by Antisense PNA Precision Antibacterials” (Biomedicines, 2021)
≈ marks a conversion by molar mass, not a printed value. {(KFF)3K-eg1} = H-(KFF)3K peptide (K lysine, F phenylalanine) with eg1 linker (8-amino-3,6-dioxaoctanoyl), on the PNA N terminus (5' end); {NH2} = C-terminal amide

Legend:
Assay type in all cases: cell-based, Acinetobacter baumannii
[1] = tested on: CRAB strain AC6; assay: Antibiotic MIC (CLSI microdilution or gradient strips); conditions: blood isolate, CLSI
Procedure: (§1) All minimum inhibitory concentration (MIC) determinations for antibiotics were performed by the standard microdilution method in 96-well microplate (Thermo-Scientific, Roskilde, Denmark) or by gradient test strips (Liofilchem, Italy) according to the Clinical and Laboratory Standards Institute guidelines.

[2] = tested on: CRAB strain AC7; assay: as above; conditions: blood isolate, CLSI
Procedure: as §1

[3] = tested on: CRAB strain AC9; assay: as above; conditions: CSF isolate, CLSI
Procedure: as §1, with “guidelines. Escherichia coli ATCC 25922 was used as control.” for “guidelines.”

[4] = tested on: CRAB strain AC8; assay: as above; conditions: sputum isolate, CLSI
Procedure: as §1, with “guidelines. Escherichia coli ATCC 25922 was used as control.” for “guidelines.”

[5] = tested on: CRAB strain AC1; assay: as above
Procedure: as §1, with “guidelines. Escherichia coli ATCC 25922 was used as control.” for “guidelines.”

[6] = tested on: CRAB strain AC5; assay: as above
Procedure: as §1, with “guidelines. Escherichia coli ATCC 25922 was used as control.” for “guidelines.”

[7] = tested on: CRAB strain AC4; assay: as above; conditions: trachea isolate, CLSI
Procedure: as §1, with “guidelines. Escherichia coli ATCC 25922 was used as control.” for “guidelines.”

[8] = tested on: CRAB strain AC46; assay: as above; conditions: sputum isolate, CLSI
Procedure: as §1, with “guidelines. Escherichia coli ATCC 25922 was used as control.” for “guidelines.”

[9] = tested on: A. baumannii ATCC 19606 type strain; assay: as above
Procedure: as §1, with “guidelines. Escherichia coli ATCC 25922 was used as control.” for “guidelines.”

[10] = tested on: CRAB strain AC44; assay: as above
Procedure: as §1, with “guidelines. Escherichia coli ATCC 25922 was used as control.” for “guidelines.”

[11] = tested on: CRAB strain SSI1104; assay: as above
Procedure: as §1, with “guidelines. Escherichia coli ATCC 25922 was used as control.” for “guidelines.”

[12] = tested on: CRAB strain AC3; assay: as above
Procedure: as §1, with “guidelines. Escherichia coli ATCC 25922 was used as control.” for “guidelines.”

[13] = tested on: CRAB strain AC2; assay: as above; conditions: wound isolate, CLSI
Procedure: as §1, with “guidelines. Escherichia coli ATCC 25922 was used as control.” for “guidelines.”

[14] = tested on: acpP mRNA in CRAB AC44 strain; assay: Real-time RT-PCR of target mRNA; conditions: AC44, 1 h treatment, normalised to 16S rRNA, against untreated control
Procedure: Real time RT-PCR was used to determine the relative expression level of the target gene upon treatment with match BPP-PNA compared to mismatch and untreated controls. The primers for q-PCR were designed to match conserved gene sequences using the AlleleID7 software (Premier Biosoft, San Francisco, CA, USA) (Table S6). Additionally, for more accurate expression of the genes at treatment and untreated conditions, the efficacy of target gene and internal controls primers was calculated by using three consecutive dilutions of the sample cDNA and drawing a standard curve through the slope of the line. […] Statistical analysis was carried out on the gene expression levels normalized to the chosen reference gene (16S rRNA) through −∆Ct analysis. The relative expression of each gene was determined by the 2^−ΔΔCT method. We used the GenEx standard (NormFinder and GeNorm) software (bioMCC, Germany) for analyzing the data.
An overnight culture of bacteria was diluted 1:100 in MHB medium and was grown with shaking (160 rpm) at 37 °C to reach the OD595 = 0.2. Then, the bacterial culture was treated with different concentrations of BPP-PNA for 1 h and the bacterial cells were harvested by centrifugation and the cell pellet used for RNA extraction.
Total RNA was isolated using the GeneJET RNA purification kit (ThermoFisher Scientific, Roskilde, Denmark) following the manufacturer’s protocol. RNA samples were treated with DNase for 30 min at 37 °C (Turbo DNA-free kit Ambion/Applied Biosystems, Carlsbad, CA, USA) and then incubated at 72 °C for 5 min to inactivate the DNase. The genomic DNA (gDNA) contamination was checked by polymerase chain reaction (PCR). RNA concentrations were determined by Nanodrop spectrophotometry at 260 nm and purity was checked by determining the absorption ratios at 260/280 nm. Total RNA (0.5 μg) was reverse-transcribed to yield cDNA as template for real-time quantitative PCR using the Quanti Tect reverse transcription kit (Qiagen, Copenhagen, Denmark). The cDNA was diluted 1:50 and used as a template in the reaction. […]

[15] = tested on: CRAB strain AC46; assay: BPP-PNA MIC, broth microdilution; conditions: 37 °C, 18 h
Procedure: (§2) MIC values were determined by broth microdilution according to standard protocols with a few modifications. […] Then, 180 µL bacterial solutions were dispensed into a low-bind 96-well plate (Thermo-Scientific, Roskilde, Denmark) along with 20 µL of BPP-PNA compound (BPP-PNA was serially diluted 2-fold from 16 to 0.5 µM in a 96-well plate). The plate was incubated in a Tecan Genios plate reader (GMI, Minnesota, Ramsey, USA) at 37 °C for 18 h with linear shaking, OD was measured every 20 min at 595 nm. […] The minimum bactericidal concentration (MBC) values were determined by plating 10 µL samples from the wells with no visible turbidity onto Mueller–Hinton agar plates. The MBC is determined the lowest concentration of BPP-PNA that reduces the viability of the initial bacterial inoculum by ≥99.9% (3-log reduction in CFU/mL). A minimum of two independent experiments (biological replicates) of the assay were conducted, and two technical replicates were used in each experiment for each bacterium, compound, and concentration.

[16] = tested on: A. baumannii SSI1104; assay: BPP-PNA MIC, broth microdilution; conditions: 37 °C, 18 h
Procedure: as §2

[17] = tested on: CRAB strain AC44; assay: BPP-PNA MIC, broth microdilution; conditions: 37 °C, 18 h
Procedure: (§3) MIC values were determined by broth microdilution according to standard protocols with a few modifications. An overnight bacterial cell culture was diluted to approximately 5 × 10^5 CFU/mL in non-cation-adjusted Muller Hinton Broth (MHB). Then, 180 µL bacterial solutions were dispensed into a low-bind 96-well plate (Thermo-Scientific, Roskilde, Denmark) along with 20 µL of BPP-PNA compound (BPP-PNA was serially diluted 2-fold from 16 to 0.5 µM in a 96-well plate). The plate was incubated in a Tecan Genios plate reader (GMI, Minnesota, Ramsey, USA) at 37 °C for 18 h with linear shaking, OD was measured every 20 min at 595 nm. […] The minimum bactericidal concentration (MBC) values were determined by plating 10 µL samples from the wells with no visible turbidity onto Mueller–Hinton agar plates. The MBC is determined the lowest concentration of BPP-PNA that reduces the viability of the initial bacterial inoculum by ≥99.9% (3-log reduction in CFU/mL). A minimum of two independent experiments (biological replicates) of the assay were conducted, and two technical replicates were used in each experiment for each bacterium, compound, and concentration.

[18] = tested on: CRAB strain AC2; assay: BPP-PNA MIC, broth microdilution; conditions: 37 °C, 18 h
Procedure: as §3

[19] = tested on: A. baumannii ATCC 19606; assay: BPP-PNA MIC, broth microdilution; conditions: 37 °C, 18 h
Procedure: as §3

[20] = Oxoid MHB medium, cation adjusted
[21] = Sigma MHB medium without cation

**Q.** With Colistin as the molecule, how does the “MIC, AC6” value [1] read?
**A.** 1 µg/mL

**Q.** What about the “MIC, AC7” value [2] of the same molecule?
**A.** 1 µg/mL

**Q.** What about the “MIC, AC9” value [3] of the same molecule?
**A.** 1 µg/mL

**Q.** And the “MIC, AC8” value [4]?
**A.** 1 µg/mL

**Q.** What about the “MIC, AC1” value ([5]; wound isolate) of the same molecule?
**A.** 1 µg/mL

**Q.** What about the “MIC, AC5” value ([6]; urine isolate) of the same molecule?
**A.** 1 µg/mL

**Q.** And the “MIC, AC4” value [7]?
**A.** 1 µg/mL

**Q.** What about the “MIC, AC46” value [8] of the same molecule?
**A.** 1 µg/mL

**Q.** What about the “MIC, ATCC 19606” value [9] of the same molecule?
**A.** 1 µg/mL

**Q.** And the “MIC, AC44” value ([10]; urine isolate)?
**A.** 0.5 µg/mL

**Q.** And the “MIC, SSI 1104” value [11]?
**A.** 1 µg/mL

**Q.** What about the “MIC, AC3” value ([12]; sputum isolate) of the same molecule?
**A.** 1 µg/mL

**Q.** What about the “MIC, AC2” value [13] of the same molecule?
**A.** 1 µg/mL

**Q.** Which results are given for `C[C@@H](O)[C@H]1C(=O)N2C(C(=O)O)=C(S[C@@H]3CN[C@H](C(=O)N(C)C)C3)[C@H](C)[C@H]12` [Meropenem]?
**A.** MIC ([1]; Acinetobacter baumannii, AC6, read-out: MIC, AC6): 16 µg/mL (≈ 41.7 µM); MIC ([2]; Acinetobacter baumannii, AC7, read-out: MIC, AC7): 16 µg/mL (≈ 41.7 µM); MIC ([3]; Acinetobacter baumannii, AC9, read-out: MIC, AC9): 16 µg/mL (≈ 41.7 µM); MIC ([4]; Acinetobacter baumannii, AC8, read-out: MIC, AC8): 16 µg/mL (≈ 41.7 µM); MIC ([5]; Acinetobacter baumannii, AC1, wound isolate): 4 µg/mL (≈ 10.4 µM); MIC ([6]; Acinetobacter baumannii, AC5, urine isolate): 16 µg/mL (≈ 41.7 µM); MIC ([7]; Acinetobacter baumannii, AC4, read-out: MIC, AC4): 16 µg/mL (≈ 41.7 µM); MIC ([8]; Acinetobacter baumannii, AC46, read-out: MIC, AC46): 16 µg/mL (≈ 41.7 µM); MIC ([9]; Acinetobacter baumannii, ATCC19606): 1 µg/mL (≈ 2.61 µM); MIC ([10]; Acinetobacter baumannii, AC44, urine isolate): 16 µg/mL (≈ 41.7 µM); MIC ([11]; Acinetobacter baumannii, SSI1104): > 16 µg/mL; MIC ([12]; Acinetobacter baumannii, AC3, sputum isolate): 4 µg/mL (≈ 10.4 µM); MIC ([13]; Acinetobacter baumannii, AC2, read-out: MIC, AC2): 16 µg/mL (≈ 41.7 µM)

**Q.** What does the source list for “H-(KFF)3K-eg1-TGACTTGTCAC-NH2 (all peptide nucleic acid (PNA), 5' {(KFF)3K-eg1}, 3' {NH2}) [PNA 5640, anti-acpP mismatch control of 5639]”?
**A.** reduction in the level of the acpP mRNA [14]: 4 fold; MIC, AC46 [15, 20]: 4 µM; MIC, AC46 [15, 21]: 4 µM; MIC, SSI 1104 [16, 20]: 4 µM; MIC, SSI 1104 [16, 21]: 4 µM; MIC, AC44 [17, 20]: 4 µM; MIC, AC44 [17, 21]: 4 µM; MIC, AC2 [18, 20]: 4 µM; MIC, AC2 [18, 21]: 4 µM; MIC, ATCC 19606 [19, 20]: 4 µM; MIC, ATCC 19606 ([19]; Sigma MHB medium without cation, ~5 × 10^5 CFU/mL, OD595 < 0.1): 4 µM
